How the values were obtained:
HIV-192BR014 = experiment: Anti-HIV combination activity in activated PBMCs, p24 ELISA, Chou-Talalay; assay type: cell-based; details: PBMC, HIV-1 92BR014, p24 day 7; combination value refers to the API in bold font (GRFT); read-out: Dm, median-effect dose (IC50)
Method: Briefly, in order to test anti-HIV activity, activated PBMCs were treated with varying equipotent doses (based on IC50 of each API) of GRFT, ZA or GRFT+ZA at 37° C. 1 h prior to exposure to 100 TCID50 of HIV-192BR014 in the presence of the same doses of each compound or combination (triplicates). Medium-treated (virus only) cells were included as a control. Eighteen hours later the cells were washed and plated in the presence of medium with IL-2 (with the only exception of those samples treated with ZA, where ZA was replaced). This step was repeated on day 4 and the supernatants collected on day 7 to measured HIV-1 p24 levels by ELISA. […] Combination indexes (CI) were estimated using the Chou-Talalay method (Chou, T. C. Pharmacological Reviews, 2006, 58(3): p. 621-81) with the Cacusyn for Windows software (Biosoft, Cambridge, United Kingdom). As provided therein, “CI” refers to a quantitative measure of the degree of drug interaction as follows: additive effect (CI=1); synergism (CI <1), or antagonism (CI >1). “Dm” refers to the median-effect dose (IC50); “m” refers to a measurement of the sigmoidicity of the dose-effect curve, and also represents the slope of the median-effect plot; and “r” refers to the linear correlation coefficient of the median-effect plot. […]

HSV-2 G strain [1] = experiment: Dye-uptake PrestoBlue antiviral assay in Vero cells; assay type: cell-based; details: 6 day incubation, combination value based on API with bold font
Method: We previously reported that the combination of ZA and CG results in a potent antiviral synergy against HSV-2. Fernandez-Romero, J. A., et al., Antimicrobial agents and chemotherapy, 2012. 56(1): p. 358-68. […] Briefly, HSV-2 G strain and different concentrations of each compound or their combinations (based on equipotency IC50 ratios) were pre-incubated at 37° C. and added to Vero cells followed by a 6 day incubation at 37° C., 5% CO2 and 98% humidity. A dye-uptake PrestoBlue assay was performed to test antiviral activity. Relative fluorescent units (RFU) were measured at 570 nm for excitation and 600 nm for emission. The % of virus replication was calculated using the following formula: % Virus replication=[(O.Dcell control−O.Dcompound)/(O.Dcell control−O.Dvirus control)]*100. IC50 values were calculated using a dose-response-inhibition analysis on GraphPad Prism v 5.0 software. As provided therein, ¶ IC50 or % IC50 reduction values are based on API with bold font; NA=Not applicable.

HIV-1 = details: p24 ELISA and RT; cited from earlier work
HIV-1NL4-3 = experiment: Anti-HIV activity in PBMC, p24 ELISA; assay type: cell-based; details: activated PBMC, p24 ELISA day 7, FIG. 1B
Method: (§1) FIG. 1 includes logarithmic plots which show the percentage of virus replication in the presence of GRFT (nM). Data in FIG. 1 A and FIG. 1 B confirm that GRFT has potent activity against HIV. […] In FIG. 1A, anti-HIV activity was tested in TZM-bl cells using the MAGI assay (R Begay O, et al. AIDS Research and Human Retroviruses, 2011 Sep. 1; 27(9):1019-24) and the laboratory strains HIV-1MN (X4 virus) and HIV-1ADA-M ([…]). In FIG. 1B, anti-HIV activity was tested in PBMC (Trkola A, et al., J Virol. 1999 November; 73(11):8966-74) using the laboratory strains HIV-1NL4-3. In FIG. 1C, anti-HPV activity was evaluated in HeLa cells using a luciferase reporter gene assay (Buck C B, et al. PLoS Pathog. 2006 Jul. 1; 2(7):e69) and testing the antiviral activity against three different HPV PsV types (16, 18 and 45). In FIGS. 1A, 1B, 1C, IC50 values are depicted as a vertical dotted line with the 95% confidence interval and were calculated using a dose-response-inhibition analysis on GraphPad Prism v 5.0 software. All the non-toxic GRFT concentrations were tested in triplicates and are shown with the mean±SD.
Anti-HIV activity was also tested in peripheral blood mononucleated cells (PBMC) using the laboratory strains HIV-1NL4-3 according to conventional methods. See Trkola A, et al., J Virol. 1999 November; 73(11):8966-74. […]

HSV-2 G strain [2] = experiment: Plaque inhibition assay in Vero cells, inhibition of virus adsorption; assay type: cell-based; details: 4° C., plaque forming units, FIG. 2A
HPV45 PsV = experiment: HPV pseudovirus luciferase assay in HeLa cells; assay type: cell-based; details: 72 h, FIG. 1C
Method: as §1
(§2) The activity of GRFT against HPV pseudoviruses was also investigated. […]

HPV18 PsV = experiment: HPV pseudovirus luciferase assay in HeLa cells; assay type: cell-based; details: 72 h, FIG. 1C
Method: as §1, §2

HIV-1ADA-M (R5 virus) = experiment: MAGI assay in TZM-bl cells, anti-HIV activity; assay type: cell-based; details: 72 h, FIG. 1A
Method: as §1
(§3) The activity of GRFT against HIV was verified in standard in vitro assays. […]

HIV-1MN (X4 virus) = experiment: MAGI assay in TZM-bl cells, anti-HIV activity; assay type: cell-based; details: 72 h, FIG. 1A
Method: as §1, §3

HSV-2 G strain [3] = experiment: Plaque inhibition assay in Vero cells, inhibition of virus entry; assay type: cell-based; details: 4° C. then 37° C. 2 h, citric acid buffer, FIG. 2B
HPV16 PsV = experiment: HPV pseudovirus luciferase assay in HeLa cells; assay type: cell-based
Method: The activity of GRFT against HPV pseudoviruses was also investigated. […] All the non-toxic GRFT concentrations were tested in triplicates. The graphics show the mean±SD.
Medium-treated (virus only) cells were included as a control. […] In order to assay for anti-HPV activity, HeLa cells were treated with varying equipotent doses of GRFT, C or GRFT+C (based on IC50 of each API) at 37° C. and immediately exposed to HPV16 PsV (triplicates). Medium-treated (virus only) cells were included as a control. The luciferase assay was performed 72 h after infection. […] As provided therein, “CI” refers to a quantitative measure of the degree of drug interaction as follows: additive effect (CI=1); synergism (CI <1), or antagonism (CI >1). […]

For `CC(=O)[O-].CC(=O)[O-].[Zn+2]` [ZA, zinc acetate], the IC50 (HIV-192BR014) was 48.3 µM and the “IC50 (95% confidence interval)” value (HSV-2 G strain [1]) was 58.2 µg/mL.

In the case of `CC(=O)[O-].CC(=O)[O-].[Cd+2]` [cadmium acetate], the HIV-1 production (HIV-1) is listed as “inhibited HIV-1 production”.

For `[Cl][Hg][Cl]` [mercury chloride], the HIV-1 production (HIV-1) is listed as “inhibited HIV-1 production”.

For `[Cl-].[Cl-].[Zn+2]` [zinc chloride], the HIV-1 production (HIV-1) is listed as “inhibited HIV-1 production”.

In the case of Griffithsin [GRFT], the “anti-HIV activity in vitro” value (HIV-1NL4-3) is reported as “potent anti-HIV activity”, the “inhibition of virus adsorption” value (HSV-2 G strain [2]) is reported as “does not prevent viral adsorption” and the “in vitro activity against HPV45 PsV” value (HPV45 PsV) is reported as “moderate in vitro activity”. For the same compound, the “in vitro activity against HPV18 PsV” value (HPV18 PsV) was “moderate in vitro activity”, the “anti-HIV activity in vitro” value (HIV-1ADA-M (R5 virus)) was “potent anti-HIV activity” and the “anti-HIV activity in vitro” value (HIV-1MN (X4 virus)) was “potent anti-HIV activity”. For the same compound, the IC50 (HIV-192BR014) was 0.0004 µM, the “IC50 (95% confidence interval)” value (HSV-2 G strain [1]) was 19 µg/mL and the “inhibition of virus entry” value (HSV-2 G strain [3]) was “prevents HSV-2 entry”. The “in vitro activity against HPV16 PsV” value (HPV16 PsV; HeLa cells, luciferase assay, 72 h, FIG. 1C) was “moderate in vitro activity” and the IC50 (HPV16 PsV; HeLa, HPV16 PsV, luciferase 72 h, combination value refers to the API in bold font, read-out: Dm, median-effect dose (IC50)) was 32.7 µM.

From patent US11331370B2, “Combination product for the prevention of sexually transmitted infections” (priority 2014, dated 2022)
